Test results taken from patent US20240209061A1, “FUSION PROTEINS AND USES THEREOF” (Pfizer Inc., priority 2020, published 2024).
Entries after “also recorded” stand apart in the source; their conditions may differ.

Tests used:
[1] = test system: Jurkat-IL-2-Luc reporter cells; assay: Jurkat-IL-2-Luc and HCT116-CD64 reporter co-stimulation assay; format: cell-based, human; conditions: for EC50: Table 17, 20 ng/ml CDH3×CD3 bispecific, n=2
Text: A T cell co-stimulation assay was designed based on T Cell Activation Bioassay (IL-2) Kit from Promega (Product #J1631). The assay consisted of a genetically engineered Jurkat T cell line that expresses luciferase reporter driven by an IL-2 promoter. Co-engagement of T cell antigen receptor (TCR/CD3) and CD28 co-stimulatory receptor induces activation of T cells and downstream intracellular signaling pathways that in turn regulate the expression of luciferase reporter. As described above, HCT116 human colon cancer cell line was used for TCR engagement using the CDH3×CD3 bispecific and genetically engineered by lentiviral transduction to express human FCγRI.
A 96 well culture plate was seeded with HCT116 parental or HCT116-CD64 cells at 40,000 cells per well in 100 μL RPMI with 10% HI FBS and grown overnight at 37° C. in CO2 incubator. To each well, Jurkat reporter cells (100,000 per well) and 10 μL of the CDH3×CD3 bispecific (8 ng/ml final concentration) were added. 10 μL of serial dilutions of variant CD80-Fc fusion proteins with concentrations ranging from 0-1000 ng/ml (final concentrations per well) was added with appropriate controls. Assay plates were incubated for 6 hours at 37° C. in CO2 incubator for before harvesting culture supernatants and transferring to new plates. Following equilibration, 80 μL of BioGlo luminescence reagent (BioGlo Luciferase assay kit, Promega, G7940) was added into each well. Plates were incubated for 5 minutes before reading luminescence on the EnSight™ plate reader (PerkinElmer).
Jurkat is an immortalized human T cell line, and the Jurkat IL-2-reporter assay assesses the CD28-mediated signaling resulting in activation of the IL-2 promoter. The activity of CD80-Fc fusion proteins was measured using the co-culture HCT116-CD64-Jurkat IL-2 reporter assay, as described in Example 2, but using 20 ng/ml CDH3×CD3 bispecific.

human PD-L1 = human PD-L1 (Homo sapiens, UniProt Q9NZQ7); assay: SPR (Biacore) binding to immobilized human PD-L1; conditions: Human PD-L1 immobilized at 60 μg/ml and 75 μg/ml
Method: (physiologic temperature) with a collection rate of 10 Hz. Purified soluble ligands were covalently coupled onto a CM5 sensor chip using an Amine coupling Kit (GE Healthcare, Product #BR100050) following the manufacturer's recommendations. […] The flow was again returned to running buffer and dissociation was monitored for 300 sec. Binding affinities and rate constants were determined by fitting the resulting double referenced (Myszka, D. G. J. Mol. Recognit. 12, 279-284 (1999)) sensorgram data to a 1:1 Langmuir model with Biacore Insight Evaluation software version 2.0 (GE Healthcare).
Binding of variant CD80-Fc to PD-L1 was not detected. FIG. 9A-9D show the SPR sensorgrams depicting binding of varying concentrations of CD80-WT-Fc and CD80-K89D-D90K-T28V-T57V-Fc to two different concentrations of immobilized human PD-L1 (60 μg/ml and 75 μg/ml).

[2] = test system: NY-ESO1-TCR+ Jurkat reporter cells; assay: Jurkat-NYESO1-IL-2-Luc and A375-CD64 co-stimulation assay; format: cell-based, human
Text: Jurkat-IL-2-Luc reporter cells (Promega, Product #J1631) were engineered with T cell receptor, TCR (Wargo J. Cancer Immunol Immunother 2009; Zhao Y. J Immunol 2005, Li Y, Nat Biotechnol 2005) against HLA-A2 restricted NY-ESO1 (SLLMWITQC-SEQ ID NO: 19) epitope using lentiviral transduction system. Human melanoma cells A375, which express human HLA-A*0201, were transduced with lentiviral vector containing endogenous codon for NY-ESO1 gene (Refseq accession NM_001327.2, CCDS14758.1). Upon expression, the construct underwent proteolytic cleavage at the ubiquitin/epitope junction, thus generating free, cytoplasmic epitope, which can be translocated into the endoplasmic reticulum and loaded onto class I HLA. A375-NY-ESO1 positive cells were treated with IFNγ to induce HLA expression and NY-ESO1 antigen presentation. The HLA expression and the antigen presentation was confirmed by Western Blot. The NY-ESO1^+-A375 cells were further engineered to express human FCγRI (CD64, GenBank:AAA58414.1, RefSeq:P12314.1) for cell surface assembly and displaying of CD80-Fc fusion proteins. The expression of FCγRI was confirmed by flow cytometry analysis.
A 96 well culture plate was seeded with NY-ESO1^+-A375 cells or NY-ESO1^+/FCγRI^+-A375 at 40,000 cells per well in 100 µL growth media (RPMI, 10% Heat Inactivated FBS, 200 μg/mL Hygromycin B, 1 mM sodium pyruvate, 0.1 mM MEM NEAA, 1 μg/mL puromycin) containing 10 ng/ml of human IFNγ (R&D Systems, product #285-IF) to induce MHC-A2 expression and grown overnight at 37° C. in CO2 incubator. To each well, NY-ESO1-TCR^+ Jurkat reporter cells, 100,000 (in 20 μL media), were added. 20 μL of serial dilutions of variant CD80-Fc fusion proteins with concentrations ranging from 0-1000 ng/ml (final concentrations per well) was added with appropriate controls. Assay plates were incubated for 6 hours at 37° C. in CO2 incubator. Following equilibration, 80 μL BioGlo luminescence reagent (BioGlo Luciferase assay kit, Promega, G7940) was added into each well. Plates were incubated for 5 minutes before reading luminescence on the EnSight™ plate reader (PerkinElmer).

recombinant soluble CD28 = target: T1, recombinant soluble CD28 (Homo sapiens, UniProt P10747); assay: ELISA binding to recombinant soluble CD28; conditions: standard ELISA, FIG. 2A
T1 construct: Recombinant soluble CD28 and CTLA-4 proteins (from Creative BioMart, Product #CD28-3910H, CTLA-4-2232H) were immobilized; purchased Creative BioMart CD28-3910H
Method: Binding affinity of purified CD80-Fc fusion proteins (WT and variant) to recombinant soluble CD28 and CTLA-4 proteins was determined by standard ELISA. Recombinant soluble CD28 and CTLA-4 proteins (from Creative BioMart, Product #CD28-3910H, CTLA-4-2232H) were immobilized on 96 well microtiter plate (Thermo Scientific, Product #436110) in bicarbonate buffer at 4° C. overnight. After washing with 1×PBS containing 0.05% Tween 20 (wash buffer) plates were incubated with blocking buffer, 5% BSA in PBS, for 1 hour at room temperature. A serial dilution of CD80-Fc fusion proteins and human IgG1 isotype control antibody was prepared in blocking buffer, added into the plate and incubated at room temperature for 1 hour. Following washing 3× with wash buffer, 1:4000 dilution of HRP conjugated secondary anti-human IgG1 antibody (R&D Systems, MAB110-100) was added into the plate and incubated at room temperature for 1 hour. Plates were washed 3× with wash buffer and a 100 μl of LumiGlo (SeraCare, Product #5430-0040) reagent added into each well, incubated for 5 minutes at room temperature before reading luminescence signal in EnSight™ plate reader (PerkinElmer).

Sequence of human PD-L1 (Q9NZQ7 19-238 limits assumed): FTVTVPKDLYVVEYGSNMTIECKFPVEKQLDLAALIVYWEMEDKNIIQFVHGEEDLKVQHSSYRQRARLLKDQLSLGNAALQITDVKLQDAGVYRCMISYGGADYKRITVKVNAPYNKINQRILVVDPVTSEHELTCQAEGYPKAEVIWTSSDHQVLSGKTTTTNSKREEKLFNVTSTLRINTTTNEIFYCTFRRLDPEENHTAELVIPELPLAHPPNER

## CD80-K89D-D90K-T28V-T57V-Fc: non-cysteine stabilized variant CD80-Fc fusion protein (K89D, D90K, T28V, T57V)
[1]
  EC50: 0.047 ± 0.004 nM
Human PD-L1
  binding to PD-L1: undetectable; also recorded: No binding

## CD80-D90Q-Fc: variant CD80 ECD (D90Q) fused to human IgG1 Fc
[2]
  enhanced co-stimulation compared to CD80-WT-Fc: about 4 fold
Recombinant soluble CD28
  binding affinity to CD28 compared to WT CD80-Fc: increased binding affinity to CD28

## CD80-K89Q-D90Q-Fc: variant CD80 ECD (K89Q, D90Q) fused to human IgG1 Fc
[2]
  enhanced co-stimulation compared to CD80-WT-Fc: about 4 fold
[1]
  enhanced co-stimulation compared to CD80-WT-Fc: about 4 fold
Recombinant soluble CD28
  binding affinity to CD28 compared to WT CD80-Fc: increased binding affinity to CD28

## CD80-WT-Fc: wild-type human CD80 extracellular domain fused to human IgG1 Fc (C220S) [reference compound]
[1]
  EC50: 0.58 ± 0.074 nM
Human PD-L1
  binding to PD-L1: detectable binding

## CD80-K89Q-D90Q-E23C-A26C-Fc: disulfide stabilized variant CD80-Fc fusion protein (K89Q, D90Q, E23C, A26C)
[1]
  EC50: 0.27 ± 0.044 nM
